Assay results taken from paper PMC9921301, “Design, Synthesis, and Antiproliferative Activity of New 5-Chloro-indole-2-carboxylate and Pyrrolo[3,4-b]indol-3-one Derivatives as Potent Inhibitors of EGFR^T790M/BRAF^V600E Pathways” (Molecules, 2023).
Like-named read-outs stand apart in the source and are kept apart here.

Tests used:
[1] = Cell viability assay (MTT) on normal mammary epithelial cells; type: cell-based; conditions: human, MCF-10A normal mammary gland epithelial cells, four days of incubation
Procedure: The viability test was performed on a normal human mammary gland epithelial cell line (MCF-10A). The MTT test was used to assess the viability of compounds 3a–e, 4a–c, and 5a–c.
The MTT assay was used to determine how the synthesized compounds affected the viability of mammary epithelial cells (MCF-10A). See Appendix SA (Supplementary Materials). […]
4.2. Biological evaluation
4.2.1. Cytotoxic activity using MTT Assay and evaluation of IC50
MTT assay was performed to investigate the effect of the synthesized compounds on mammary epithelial cells (MCF-10A). The cells were propagated in medium consisting of Ham's F-12 medium/ Dulbecco's modified Eagle's medium (DMEM) (1:1) supplemented with 10% foetal calf serum, 2 mM glutamine, insulin (10 μg/mL), hydrocortisone (500 ng/mL) and epidermal growth factor (20 ng/mL). Trypsin ethylenediamine tetra acetic acid (EDTA) was used to passage the cells after every 2-3 days. 96-well flat-bottomed cell culture plates were used to seed the cells at a density of 10^4 cells mL-1. The medium was aspirated from all the wells of culture plates after 24 h followed by the addition of synthesized compounds (in 200 μL medium to yield a final concentration of 0.1% (v/v) dimethylsulfoxide) into individual wells of the plates.
Four wells were designated to a single compound. The plates were allowed to incubate at 37°C for 96 h. Afterwards, the medium was aspirated and 3-[4,5-dimethylthiazol-2-yl]-2,5-diphenyltetrazolium bromide (MTT) (0.4 mg/mL) in medium was added to each well and subsequently incubated for 3 h. The medium was aspirated and 150 μL dimethyl sulfoxide (DMSO) was added to each well. The plates were vortexed followed by the measurement of absorbance at 540 nm on a microplate reader. […]

[2] = test system: A-549 (epithelial cancer cell line); experiment: Antiproliferative assay, A-549; type: cell-based; conditions: Homo sapiens, A549; read-out: Antiproliferative Activity IC50 ± SEM A-549
Procedure: (§1) For ease of manipulation, the average (GI50) versus the four cancer cell lines was used.
(§2) To investigate the antiproliferative potential of 3a–e, 4a–c, and 5a–c, the MTT assay was carried out using various cell lines in accordance with previously reported procedures. See Appendix SA (Supplementary Materials). […]
(§3) ethylenediamine tetra acetic acid (EDTA) was used to passage the cells after every 2-3 days. 96-well flat-bottomed cell culture plates were used to seed the cells at a density of 10^4 cells mL-1. The medium was aspirated from all the wells of culture plates after 24 h followed by the addition of synthesized compounds (in 200 μL medium to yield a final concentration of 0.1% (v/v) dimethylsulfoxide) into individual wells of the plates.
(§4) Four wells were designated to a single compound. The plates were allowed to incubate at 37°C for 96 h. Afterwards, the medium was aspirated and 3-[4,5-dimethylthiazol-2-yl]-2,5-diphenyltetrazolium bromide (MTT) (0.4 mg/mL) in medium was added to each well and subsequently incubated for 3 h. The medium was aspirated and 150 μL dimethyl sulfoxide (DMSO) was added to each well. The plates were vortexed followed by the measurement of absorbance at 540 nm on a microplate reader. The results were presented as inhibition (%) of proliferation in contrast to controls comprising 0.1% 4.2.1.2. Assay for antiproliferative effect
(§5) To explore the antiproliferative potential of compounds propidium iodide fluorescence assay was performed using different cell lines such as Panc-1 (pancreas cancer cell […]
(§6) (epithelial cancer cell line), respectively. To calculate the total nuclear DNA, a fluorescent dye (propidium iodide, PI) is used which can attach to the DNA, thus offering a quick and precise technique. PI cannot pass through the cell membrane and its signal intensity can be considered as directly proportional to quantity of cellular
(§7) DNA. Cells whose cell membranes are damaged or have changed permeability are counted as dead ones. The assay was performed by seeding the cells of different cell lines at a density of 3000-7500 cells/well (in200μl medium) in culture plates followed […]
(§8) The medium was removed; the compounds were added to the plates at 10 μM concentrations (in 0.1% DMSO) in triplicates, followed by incubation for 48h. DMSO (0.1%) was used as control. After incubation, medium was removed followed by the addition of PI (25 μl, 50μg/mL in water/medium) to each well of the plates. At -80 °C, the plates were allowed to freeze for 24 h, followed by thawing at 25 °C. A fluorometer (Polar-Star BMG Tech) was used to record the readings at excitation and emission wavelengths of 530 and 620 nm for each well. The percentage cytotoxicity of compounds was calculated using the following formula:
(§9) Where ATC= Absorbance of treated cells and AC= Absorbance of control. […]
(§10) was used as positive control in the assay. […]

[3] = test system: MCF-7 (breast cancer cell line); experiment: Antiproliferative assay, MCF-7; type: cell-based; conditions: Homo sapiens, MCF7; read-out: Antiproliferative Activity IC50 ± SEM MCF-7
Procedure: as §1, §2, §3, §4, §5, §6, §7, §8, §9, §10

[4] = test system: Panc-1 (pancreatic cancer cell line); experiment: Antiproliferative assay, Panc-1; type: cell-based; conditions: Homo sapiens, read-out: Antiproliferative Activity IC50 ± SEM Panc-1
Procedure: as §1, §2, §3, §4, §5, §6, §7, §8, §9, §10

[5] = test system: HT-29 (colon cancer cell line); experiment: Antiproliferative assay, HT-29; type: cell-based; conditions: Homo sapiens, read-out: Antiproliferative Activity IC50 ± SEM HT-29
Procedure: as §1, §2, §3, §4, §5, §6, §7, §8, §9, §10

[6] = test system: four human cancer cell lines (Panc-1, MCF-7, HT-29, A-549); experiment: Antiproliferative assay, average (GI50) versus the four cancer cell lines; type: cell-based; conditions: for GI50: Homo sapiens, average versus the four cancer cell lines; for fold less potent than 3e (GI50): relative to 3e GI50 29 nM
Procedure: as §1, §2, §3, §4, §5, §6, §7, §8, §9, §10

BRAF^V600E [7] = target: T1, BRAF^V600E (Mus musculus, UniProt P28028, V585E); experiment: V600E mutant BRAF kinase assay; type: biochemical; conditions: for IC50: read-out: BRAF^V600E Inhibition IC50 ± SEM
T1 construct: Mouse full-length GST-tagged; GST; purchased Invitrogen PV3849
T1 sequence (P28028 whole entry V585E): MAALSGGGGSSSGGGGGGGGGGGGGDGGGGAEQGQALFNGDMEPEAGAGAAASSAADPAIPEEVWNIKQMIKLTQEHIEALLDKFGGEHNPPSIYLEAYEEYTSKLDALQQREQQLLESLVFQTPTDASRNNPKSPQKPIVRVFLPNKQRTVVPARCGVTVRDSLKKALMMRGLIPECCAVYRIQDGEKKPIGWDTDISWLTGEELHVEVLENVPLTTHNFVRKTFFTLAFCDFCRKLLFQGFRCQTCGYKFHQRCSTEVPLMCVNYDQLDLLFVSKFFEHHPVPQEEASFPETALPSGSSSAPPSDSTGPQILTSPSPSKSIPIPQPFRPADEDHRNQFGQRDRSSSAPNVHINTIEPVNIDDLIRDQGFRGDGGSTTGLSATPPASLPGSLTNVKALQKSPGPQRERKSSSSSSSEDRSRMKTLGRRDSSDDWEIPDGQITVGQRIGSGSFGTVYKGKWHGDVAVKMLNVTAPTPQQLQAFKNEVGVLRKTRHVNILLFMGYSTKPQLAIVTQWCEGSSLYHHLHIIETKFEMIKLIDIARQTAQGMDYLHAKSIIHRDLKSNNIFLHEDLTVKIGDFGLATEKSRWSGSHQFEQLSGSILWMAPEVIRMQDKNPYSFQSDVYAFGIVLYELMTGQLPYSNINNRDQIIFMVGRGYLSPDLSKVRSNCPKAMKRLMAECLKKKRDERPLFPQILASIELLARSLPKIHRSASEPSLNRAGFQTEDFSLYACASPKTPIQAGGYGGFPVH
Procedure: V600E mutant BRAF kinase assay was performed to investigate the activity of […]
Mouse full-length GST-tagged
BRAFV600E (7.5 ng, Invitrogen, PV3849) was pre -incubated with drug (1 µL) and assay dilution buffer (4 µL) for 6 0 min at 25 °C. In assay dilution buffer, a solution (5 µL) containing MgCl2 (30 mM), ATP (200 µM), recombinant human full length (200 ng) […] N-terminal His-tagged MEK1 (Invitrogen) was added to start the assay, after incubation for 25 min at 25 °C. The assay was stopped using 5X protein denaturing buffer (LDS) solution (5 µL). To further denature the protein, heat (70° C) was applied […]
electrophoresis (at 200 V). 10 µL of each reaction was loaded into the precast plates and electrophoresis was allowed to proceed. After completion of electrophoresis, the front part of the precast gel plate (holding hot ATP) was cut and afterwards cast -off.
The dried gel was developed using a phosphor screen. […]
Computerized Prism 5 program was used to statistically analyzed data using one-way ANOVA test followed by Tukey’s as post ANOVA for multiple comparison at P ≤.05.
Data were presented as mean ± SEM.

EGFR [8] = target: T2, EGFR (Homo sapiens, UniProt P00533); experiment: EGFR-TK inhibitory assay
T2 sequence (P00533 669-1210): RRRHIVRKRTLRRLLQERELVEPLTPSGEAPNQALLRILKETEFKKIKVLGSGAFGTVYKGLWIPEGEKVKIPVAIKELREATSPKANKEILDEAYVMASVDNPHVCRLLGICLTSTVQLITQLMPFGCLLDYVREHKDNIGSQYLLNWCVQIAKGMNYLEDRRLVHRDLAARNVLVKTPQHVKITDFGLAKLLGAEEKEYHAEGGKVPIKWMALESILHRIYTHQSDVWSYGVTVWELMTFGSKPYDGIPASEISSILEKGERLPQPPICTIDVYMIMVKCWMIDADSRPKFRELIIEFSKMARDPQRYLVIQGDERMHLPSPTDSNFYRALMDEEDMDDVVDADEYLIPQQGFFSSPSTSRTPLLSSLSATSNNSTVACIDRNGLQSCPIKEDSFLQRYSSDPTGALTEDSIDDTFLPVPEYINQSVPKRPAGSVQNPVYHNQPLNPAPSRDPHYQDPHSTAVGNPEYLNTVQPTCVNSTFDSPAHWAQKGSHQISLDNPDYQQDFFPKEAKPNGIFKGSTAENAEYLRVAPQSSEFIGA

EGFR [9] = target: T2, EGFR; design: CD, amino acids 645–1186); His6 (N); made in house; host or cells: Sf-9 insect cells (baculovirus; pBlueBacHis2B / pFASTBacHTc; conditions: cited from earlier work
BRAF^V600E [10] = conditions: cited from earlier work

Row | Compound | IC50 [2] | IC50 [3] | IC50 [4] | IC50 [5] | GI50 [6] | IC50 (BRAF^V600E [7]) | fold less potent than vemurafenib (BRAF^V600E IC50) (BRAF^V600E [7]; relative to vemurafenib IC50 = 30 nM) | IC50 (EGFR [8]) | fold less potent than 3e (GI50) [6] | viability at 96 h, 50 µM [1] | IC50 (EGFR [9]) | IC50 (BRAF^V600E [10])
1 | CCOC(=O)c1[nH]c2ccc(Cl)cc2c1CNCCc1ccccc1 [Compound 3a, Ethyl 5-chloro-3-((phenethylamino)methyl)-1H-indole-2-carboxylate] | 33 ± 3 nM | 35 ± 3 nM | 36 ± 3 nM | 36 ± 3 nM | 35 nM | 43 ± 4 nM | 1.4 fold | 85 ± 6 nM |  | 87% |  | 
2 | CCOC(=O)c1[nH]c2ccc(Cl)cc2c1CNCCc1ccc(N2CCCCC2)cc1 [Compound 3c, Ethyl 5-chloro-3-((4-(piperidin-1-yl)phenethylamino)methyl)-1H-indole-2-carboxylate] | 41 ± 4 nM | 45 ± 4 nM | 42 ± 4 nM | 44 ± 4 nM | 42 nM | 67 ± 6 nM |  | 89 ± 6 nM | 1.5 fold | 89% |  | 
3 | CCOC(=O)c1[nH]c2ccc(Cl)cc2c1CNCCc1ccc(N2CCCC2C)cc1 (stereo not shown) [Compound 3d, Ethyl 5-chloro-3-((4-(2-methylpyrrolidin-1-yl)phenethylamino)methyl)-1H-indole-2-carboxylate] | 37 ± 3 nM | 40 ± 4 nM | 38 ± 3 nM | 38 ± 3 nM | 38 nM | 54 ± 5 nM |  | 82 ± 7 nM | 1.3 fold | 90% |  | 
4 | O=C(NCCc1ccc(N2CCOCC2)cc1)c1[nH]c2ccc(Cl)cc2c1CO [Compound IVc] |  |  |  |  |  |  |  |  |  |  | 120 nM | 
5 | Cc1c2cc(Cl)ccc2n2cc(Cc3ccccc3)[nH]c(=O)c12 [Compound V] |  |  |  |  |  |  |  |  |  |  |  | 100 nM
6 | CCOCc1c2n(c3ccc(Cl)cc13)C(=O)CN(CCc1ccc(N3CCOCC3)cc1)C2=O [VII] |  |  |  |  |  |  |  |  |  |  | 32 nM | 45 nM

Further lines, with some results ahead:

Row | IC50 [2] | IC50 [3] | IC50 [4] | IC50 [5] | GI50 [6] | IC50 (BRAF^V600E [7]) | fold less potent than vemurafenib (BRAF^V600E IC50) (BRAF^V600E [7]; relative to vemurafenib IC50 = 30 nM) | IC50 (EGFR [8]) | fold less potent than 3e (GI50) [6] | Compound | viability at 96 h, 50 µM [1] | IC50 (EGFR [9]) | IC50 (BRAF^V600E [10])
7 | 75 ± 7 nM | 79 ± 7 nM | 78 ± 7 nM | 78 ± 7 nM | 78 nM |  |  |  |  | O=C(O)c1[nH]c2ccc(Cl)cc2c1CNCCc1ccccc1 [Compound 4a, 5-Chloro-3-((phenethylamino)methyl)-1H-indole-2-carboxylic acid] | 91% |  | 
8 | 65 ± 6 nM | 69 ± 6 nM | 68 ± 6 nM | 68 ± 6 nM | 68 nM |  |  |  |  | O=C(O)c1[nH]c2ccc(Cl)cc2c1CNCCc1ccc(N2CCCC2)cc1 [Compound 4b, 5-Chloro-3-((4-(pyrrolidin-1-yl)phenethylamino)methyl)-1H-indole-2-carboxylic acid] | 89% |  | 
9 | 69 ± 7 nM | 73 ± 7 nM | 72 ± 7 nM | 75 ± 7 nM | 72 nM |  |  |  |  | O=C(O)c1[nH]c2ccc(Cl)cc2c1CNCCc1ccc(N2CCCCC2)cc1 [Compound 4c, 5-Chloro-3-((4-(piperidin-1-yl)phenethylamino)methyl)-1H-indole-2-carboxylic acid] | 87% |  | 
10 | 46 ± 4 nM | 48 ± 5 nM | 50 ± 5 nM | 49 ± 5 nM | 48 nM |  |  |  |  | O=C1c2[nH]c3ccc(Cl)cc3c2CN1CCc1ccccc1 [Compound 5a, 7-Chloro-2-phenethyl-1,2-dihydropyrrolo [3,4-b]indol-3(4H)-one] | 89% |  | 
11 | 58 ± 5 nM | 61 ± 6 nM | 64 ± 6 nM | 66 ± 6 nM | 62 nM |  |  |  |  | O=C1c2[nH]c3ccc(Cl)cc3c2CN1CCc1ccc(N2CCCC2)cc1 [Compound 5b, 7-Chloro-2-(4-(pyrrolidin-1-yl)phenethyl)-1,2-dihydropyrrolo [3,4-b]indol-3(4H)-one] | 89% |  | 
12 | 51 ± 5 nM | 53 ± 5 nM | 55 ± 5 nM | 57 ± 5 nM | 54 nM |  |  |  |  | O=C1c2[nH]c3ccc(Cl)cc3c2CN1CCc1ccc(N2CCCCC2)cc1 [Compound 5c, 7-Chloro-2-(4-(piperidin-1-yl)phenethyl)-1,2-dihydropyrrolo [3,4-b]indol-3(4H)-one] | 91% |  | 
